Test results published in US20160039767A1, “PYRAZOLE DERIVATIVES AS PRMT1 INHIBITORS AND USES THEREOF” (EPIZYME, INC., priority 2013, published 2016).
Like-named read-outs stand apart in the source and are kept apart here.

Key:
PRMT1 = target: T1, PRMT1 (Homo sapiens, UniProt Q99873); test: PRMT1 Biochemical Assay (3H-SAM Flashplate, histone H4 peptide substrate); details: Biochemical IC50 (Numerical, μM) PRMT1, single experiment or average of multiple experiments, Table 2a
T1 construct: GST-tagged PRMT1; made in house; host or cells: High Five insect cells (baculovirus, pFastBacI)
T1 sequence (Q99873 with tags, fused parts or gaps): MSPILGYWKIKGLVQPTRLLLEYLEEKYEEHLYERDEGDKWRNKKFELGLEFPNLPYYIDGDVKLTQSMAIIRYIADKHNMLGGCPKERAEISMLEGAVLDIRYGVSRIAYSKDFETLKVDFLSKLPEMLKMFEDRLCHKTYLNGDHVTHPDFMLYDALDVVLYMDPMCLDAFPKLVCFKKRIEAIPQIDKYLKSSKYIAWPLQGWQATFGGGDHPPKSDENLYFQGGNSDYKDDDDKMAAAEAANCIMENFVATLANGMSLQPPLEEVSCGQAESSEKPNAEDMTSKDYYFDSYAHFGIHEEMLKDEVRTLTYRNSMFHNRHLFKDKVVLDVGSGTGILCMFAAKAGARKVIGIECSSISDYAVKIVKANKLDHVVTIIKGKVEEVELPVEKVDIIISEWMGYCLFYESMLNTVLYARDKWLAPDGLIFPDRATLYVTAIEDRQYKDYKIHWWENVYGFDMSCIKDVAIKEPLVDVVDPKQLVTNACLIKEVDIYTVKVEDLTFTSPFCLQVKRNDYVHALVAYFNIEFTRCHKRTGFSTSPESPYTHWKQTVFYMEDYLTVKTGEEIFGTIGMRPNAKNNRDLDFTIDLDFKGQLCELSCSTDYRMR
Excerpt: S-adenosylmethionine (SAM), S-adenosylhomocysteine (SAH), bicine, Tween20, dimethylsulfoxide (DMSO), bovine skin gelatin (BSG), and Tris(2-carboxyethyl)phosphine hydrochloride solution (TCEP) were purchased from Sigma-Aldrich at the highest level of purity possible. ^3H-SAM was purchase from American Radiolabeled Chemicals with a specific activity of 80 Ci/mmol. 384-well streptavidin Flashplates were purchased from PerkinElmer.
Recombinant baculovirus were generated according to Bac-to-Bac kit instructions (Life Technologies). Protein over-expression was accomplished by infecting exponentially growing High Five insect cell culture at 1.5×10^6 cell/ml with 1:100 ratio of virus. Infections were carried out at 27° C. for 48 hours, harvested by centrifugation, and stored at −80° C. for purification.
GST-tagged PRMT1 was eluted with 50 mM Tris, 2 mM glutathione, pH 7.8, dialysed in buffer A and concentrated to 1 mg/mL.
General Procedure for PRMT1 Enzyme Assays on Peptide Substrates.
The assays were all performed in a buffer consisting of 20 mM Bicine (pH=7.6), 1 mM TCEP, 0.005% BSG, and 0.002% Tween 20, prepared on the day of use. […] DMSO (1 ul) was added to Columns 11, 12, 23, 24, rows A-H for the maximum signal control and 1 ul of SAH, a known product and inhibitor of PRMT1, was added to columns 11, 12, 23, 24, rows I-P for the minimum signal control. A cocktail (40 ul) containing the PRMT1 enzyme was added by Multidrop Combi (Thermo-Fisher). The compounds were allowed to incubate with PRMT1 for 30 min at room temperature, then a cocktail (10 ul) containing SAM and peptide was added to initiate the reaction (final volume=51 ul). […] The assays were stopped by the addition of non-radiolabeled SAM (10 ul) to a final concentration of 300 uM, which dilutes the ^3H-SAM to a level where its incorporation into the peptide substrate is no longer detectable. […] The plates were then read in a PerkinElmer TopCount plate reader to measure the quantity of ^3H-labeled peptide bound to the Flashplate surface, measured as disintegrations per minute (dpm) or alternatively, referred to as counts per minute (cpm).
Where dpm=disintegrations per minute, cmpd=signal in assay well, and min and max are the respective minimum and maximum signal controls.
Where top and bottom are the normally allowed to float, but may be fixed at 100 or 0 respectively in a 3-parameter fit. The Hill Coefficient normally allowed to float but may also be fixed at 1 in a 3-parameter fit. Y is the % inhibition and X is the compound concentration.

RKO cells = test: RKO Methylation Assay (In Cell Western for mono-methyl arginine and DNA content); format: cell-based; details: Homo sapiens
Excerpt: RKO adherent cells were purchased from ATCC (American Type Culture Collection), Manassas, Va., USA. DMEM/Glutamax medium, penicillin-streptomycin, heat inactivated fetal bovine serum, 0.05% trypsin and D-PBS were purchased from Life Technologies, Grand Island, N.Y., USA. Odyssey blocking buffer, 800CW goat anti-rabbit IgG (H+L) antibody, and Licor Odyssey infrared scanner were purchased from Licor Biosciences, Lincoln, Nebr., USA. Mono-methyl arginine antibody was purchased from Cell Signaling Technology, Danvers, Mass., USA. Methanol was purchased from VWR, Franklin, Mass., USA. 10% Tween 20 was purchased from KPL, Inc., Gaithersburg, Md., USA. DRAQ5 was purchased from Biostatus Limited, Leicestershire, UK.
RKO adherent cells were maintained in growth medium (DMEM/Glutamax medium supplemented with 10% v/v heat inactivated fetal bovine serum and 100 units/mL penicillin-streptomycin) and cultured at 37° C. under 5% CO2.
Cell Treatment, in Cell Western (ICW) for Detection of Mono-Methyl Arginine and DNA Content.
Compound (100 nL) from a 96-well source plate was added directly to 384 well cell plate. Plates were incubated at 37° C., 5% CO2 for 72 hours. After three days of incubation, plates were brought to room temperature outside of the incubator for ten minutes and blotted on paper towels to remove cell media. 50 μL of ice cold 100% methanol was added directly to each well and incubated for 30 min at room temperature. After 30 min, plates were transferred to a Biotek EL406 plate washer and washed 2 times with 100 μL per well of wash buffer (1×PBS). Next 60 μL per well of Odyssey blocking buffer (Odyssey Buffer with 0.1% Tween 20 (v/v)) were added to each plate and incubated 1 hour at room temperature. Blocking buffer was removed and 20 μL per well of primary antibody was added (mono-methyl arginine diluted 1:200 in Odyssey buffer with 0.1% Tween 20 (v/v)) and plates were incubated overnight (16 hours) at 4° C. Plates were washed 5 times with 100 µL per well of wash buffer. Next 20 μL per well of secondary antibody was added (1:200 800CW goat anti-rabbit IgG (H+L) antibody, 1:1000 DRAQ5 (Biostatus limited) in Odyssey buffer with 0.1% Tween 20 (v/v)) and incubated for 1 hour at room temperature. The plates were washed 5 times with 100 μL per well wash buffer then 2 times with 100 μL per well of water. Plates were allowed to dry at room temperature then imaged on the Licor Odyssey machine which measures integrated intensity at 700 nm and 800 nm wavelengths. Both 700 and 800 channels were scanned.
First, the ratio for each well was determined by:
Each plate included fourteen control wells of DMSO only treatment (minimum activation) as well as fourteen control wells for maximum activation treated with 20 μM of a reference compound. The average of the ratio values for each control type was calculated and used to determine the percent activation for each test well in the plate. Reference compound was serially diluted three-fold in DMSO for a total of nine test concentrations, beginning at 20 μM. Percent activation was determined and EC30 curves were generated using triplicate wells per concentration of compound.

[1] = RKO cells, 72 hours, mono-methyl arginine, class symbols, Table 3, read-out: In Cell Western data EC30
[2] = RKO cells, 72 hours, mono-methyl arginine, single experiment or average of multiple experiments, Table 3a, read-out: In Cell Western data (Numerical, μM) EC30
[3] = RKO, 72 h, read-out: In Cell Western data (Numerical, μM) EC30
[4] = RKO, 72 h, read-out: In Cell Western data EC30

Structure (SMILES)	IC50 (PRMT1)	further results
CN(CCN)Cc1c[nH]nc1-c1ccc(Cl)c(C(F)(F)F)c1 [Compound 3]	0.0232 µM	
CNCCN(C)Cc1c[nH]nc1-c1cc(Oc2ccncc2)cc(C(F)(F)F)c1 [Compound 38]	0.138 µM	EC30 (RKO cells; [1]): 3.01 to 12 µM; EC30 (RKO cells; [2]): 8.58 µM
CNCCN(C)Cc1c[nH]nc1-c1cc(OCCCOC)c(Cl)c(C(F)(F)F)c1 [Compound 57]	0.0318 µM	
CC(C)CCc1cc(-c2n[nH]cc2CN(C)CCN)cc(C(F)(F)F)c1 [Compound 63]	0.0114 µM	
CNCCN(C)Cc1c[nH]nc1-c1cc(OCCCOC)cc(C(F)(F)F)c1 [Compound 24]	0.0229 µM	EC30 (RKO cells; [1]): 3.01 to 12 µM; EC30 (RKO cells; [2]): 4.02 µM
CNCCN(C)Cc1c[nH]nc1-c1cc(OCC(C)C)cc(C(F)(F)F)c1 [Compound 15]	0.0162 µM	
CCCOc1ccc(-c2n[nH]cc2CN(C)CCNC)cc1C(F)(F)F [Compound 11]	0.00462 µM	EC30 (RKO cells; [3]): 0.558 µM; EC30 (RKO cells; [4]): < 3 µM
CNCCN(C)Cc1c[nH]nc1-c1cc(CCC(C)C)cc(C(F)(F)F)c1 [Compound 62]	0.0136 µM	
CNCCN(C)Cc1c[nH]nc1-c1cc(C)c(OC2CCOCC2)c(C(F)(F)F)c1 [Compound 59]	0.0316 µM	EC30 (RKO cells; [3]): 1.37 µM; EC30 (RKO cells; [4]): < 3 µM
CC(C)Oc1ccc(-c2c[nH]nc2CN(C)CCN)cc1C(F)(F)F [Compound 8]	0.0165 µM	EC30 (RKO cells; [1]): < 3 µM; EC30 (RKO cells; [2]): 2.69 µM
CNCCN(C)Cc1n[nH]cc1-c1cc(C(O)C(C)C)cc(C(F)(F)F)c1 (centres unmarked) [Compound 32]	> 1 µM	
CC(C)Oc1ccc(-c2n[nH]cc2CN(C)CCN)cc1C(F)(F)F [Compound 5]	0.00445 µM	EC30 (RKO cells; [3]): 0.305 µM; EC30 (RKO cells; [4]): < 3 µM
CNCCN(C)Cc1c[nH]nc1-c1cc(Cl)c(OCC2CCC2)c(C(F)(F)F)c1 [Compound 35]	0.00431 µM	EC30 (RKO cells; [3]): 0.694 µM; EC30 (RKO cells; [4]): < 3 µM
CNCCN(C)Cc1c[nH]nc1-c1cccc(C(F)(F)F)c1 [Compound 1]	0.123 µM	
CNCCN(C)Cc1c[nH]nc1-c1cc(OCc2ccccc2)cc(C(F)(F)F)c1 [Compound 37]	0.0185 µM	EC30 (RKO cells; [1]): 3.01 to 12 µM; EC30 (RKO cells; [2]): 5 µM
CNCCN(C)Cc1c[nH]nc1-c1cc(OCCCC(=O)OC)cc(C(F)(F)F)c1 [Compound 61]	0.0165 µM	
CNCCN(C)Cc1c[nH]nc1-c1cc(Cl)c(OCC2CC2)c(C(F)(F)F)c1 [Compound 41]	0.00636 µM	EC30 (RKO cells; [3]): 2.39 µM; EC30 (RKO cells; [4]): < 3 µM
CNCCN(C)Cc1c[nH]nc1-c1cc(C)c(OCC2CCOCC2)c(C(F)(F)F)c1 [Compound 65]	0.0471 µM	EC30 (RKO cells; [3]): 1.45 µM; EC30 (RKO cells; [4]): < 3 µM
CNCCN(C)Cc1n[nH]cc1-c1ccc(OCC(C)C)c(C(F)(F)F)c1 [Compound 18]	0.00988 µM	EC30 (RKO cells; [1]): < 3 µM; EC30 (RKO cells; [2]): 2.69 µM
CNCCN(C)Cc1c[nH]nc1-c1cc(OCC(F)(F)F)cc(C(F)(F)F)c1 [Compound 60]	0.0576 µM	

Structure (SMILES)	IC50 (PRMT1)	further results
CCCOc1cc(-c2n[nH]cc2CN(C)CCNC)cc(C(F)(F)F)c1 [Compound 19]	0.0275 µM	EC30 (RKO cells; [1]): 3.01 to 12 µM; EC30 (RKO cells; [2]): 5.07 µM
CNCCN(C)Cc1c[nH]nc1-c1cc(OCCC(C)C)c(Cl)c(C(F)(F)F)c1 [Compound 54]	0.146 µM	
CN(CCN)Cc1c[nH]nc1-c1ccc(F)c(C(F)(F)F)c1 [Compound 4]	0.0572 µM	
CNCCN(C)Cc1n[nH]cc1-c1cc(Cl)c(OC(C)C)c(C(F)(F)F)c1 [Compound 33]	0.0441 µM	
CNCCN(C)Cc1c[nH]nc1-c1cc(OCCOC)c(Cl)c(C(F)(F)F)c1 [Compound 55]	0.163 µM	
CN(CCN)Cc1n[nH]cc1-c1cc(C(F)(F)F)cc(C(F)(F)F)c1 [Compound 7]	2.6 µM	
CNCCN(C)Cc1n[nH]cc1-c1cc(OCCCOC)cc(C(F)(F)F)c1 [Compound 27]	0.139 µM	
CC(C)CCOc1cc(-c2n[nH]cc2CN(C)CCN)cc(C(F)(F)F)c1Cl [Compound 40]	0.152 µM	
CNCCN(C)Cc1n[nH]cc1-c1cc(OCC(C)C)cc(C(F)(F)F)c1 [Compound 29]	0.0663 µM	
CNCCN(C)Cc1n[nH]cc1-c1cc(OCCC(C)C)cc(C(F)(F)F)c1 [Compound 22]	0.0189 µM	
CN(CCN)Cc1c[nH]nc1-c1cc(C(F)(F)F)cc(C(F)(F)F)c1 [Compound 2]	0.389 µM	
CNCCN(C)Cc1c[nH]nc1-c1cc(OC2CCCCC2)cc(C(F)(F)F)c1 [Compound 39]	0.0259 µM	
CCCOc1cc(-c2c[nH]nc2CN(C)CCNC)cc(C(F)(F)F)c1 [Compound 31]	0.17 µM	
COCCOc1cc(-c2n[nH]cc2CN(C)CCN)cc(C(F)(F)F)c1Cl [Compound 56]	0.194 µM	
CNCCN(C)Cc1c[nH]nc1-c1cc(Oc2cncnc2)cc(C(F)(F)F)c1 [Compound 53]	0.299 µM	
CNCCN(C)Cc1c[nH]nc1-c1ccc(OCCC(C)C)c(C(F)(F)F)c1 [Compound 9]		EC30 (RKO cells; [3]): 1.77 µM; EC30 (RKO cells; [4]): < 3 µM
CNCCN(C)Cc1c[nH]nc1-c1cc(OCCc2ccccc2)cc(C(F)(F)F)c1 [Compound 42]		EC30 (RKO cells; [3]): 2.7 µM; EC30 (RKO cells; [4]): < 3 µM
CNCCN(C)Cc1c[nH]nc1-c1cc(OCC2CCCC2)cc(C(F)(F)F)c1 [Compound 45]	0.0103 µM	
CN(CCN)Cc1n[nH]cc1-c1ccc(Oc2ccccc2)c(C(F)(F)F)c1 [Compound 26]	0.00917 µM	
